Tests used:
[1] = Log P of tested compounds; format: physicochemical
philtrum skin = experiment: Cooling sensation after ointment applied to philtrum skin; format: in vivo, human; settings: for Duration of cooling, Philtrum Skin: 5 mg/ml in Aquaphor ointment on philtrum skin; for duration of cooling (FIG. 1): 40 to 70 mg of 1% wt/vol (10 mg/ml) ointment on skin above the upper lips; for duration of action / onset on philtrum skin: Study 1
Source text: A reliable place for topical application is the skin above the upper lip (above the vermilion border of the lips), on the philtrum, lateral to the philtrum until the nasolabial folds, and on the lower nostrils (subnasale). This part of the face is known to be densely innervated with cold receptors, second only to the surfaces of the eyeball and anogenitalia.
The intensity of the subjective skin sensation is rated as 0, 1, 2 or 3 with: 0 as no change; 1 as slight coolness, cold, or tingling; 2 as clear-cut signal of coolness, cold, or tingling; and 3 as robust cooling or cold. The intervals for recording sensations are 5 to 10 minutes, until two successive zeroes are obtained. The results (shown in FIG. 1) are averaged values of 4 to 6 separate trials in the same individual. The data are plotted using SigmaPlot® (Systat Software, Point Richmond Calif.) and a smoothing function with a negative exponential was used for analysis and statistical fit of the results. Confirmatory trials of cooling action of the long-acting NACE compounds were obtained in 2 to 4 individuals but not quantified for some because of the large number of chemicals that were evaluated
The onset of drug action is taken as the time to reach 2 units of coolness intensity, and offset of drug action is the time when coolness intensity drops below 2, after previously surpassing 2 units. The duration of cooling action is defined as the offset time minus the onset time. […] The quality of the sensation is noted, for example, as pure refreshing coolness, or if the sensation is accompanied by irritation (stinging or burning). The quality of the sensation is not rated for intensity.
For bioassay on the skin, approximately 30 mg was stirred and dissolved in 3 g of warm liquid Aquaphor® ointment to a yield 5 to 10 mg/ml (0.5% to 1.0 wt/vol) ointment. After cooling, 40 to 70 mg of the solid ointment was placed on the tip of a plastic stick and applied to the skin above the upper lip, on the philtrum, and lateral to the philtrum, up to the nasolabial folds, of test subjects and the onset and duration of cooling sensations noted.
The intensity of the subjective skin sensation was rated as 0, 1, 2 or 3 with: 0 as no change; 1 as slight coolness, cold, or tingling; 2 as clear signal of coolness, cold, or tingling; and 3 as robust cooling or cold. The intervals for recording sensations were 5 to 10 minutes, until two successive zeroes were obtained. The results (shown in FIG. 1) are averaged values of 4 to 6 separate trials in the same individual. The data are plotted using SigmaPlot® (Systat Software, Point Richmond, Calif., USA) and a smoothing function with a negative exponential was used for analysis and statistical fit of the results.
The onset of drug action was taken as the time to reach 2 units of coolness intensity, and offset of drug action was the time when coolness intensity drops below 2, after previously surpassing 2 units. The duration of cooling action was defined as the offset time minus the onset time. […] The quality of the sensation was also noted: such as pure refreshing coolness, or if the sensation was accompanied by irritation (stinging or burning). The quality of the sensation was not rated for intensity.
For the results in FIG. 1, the test compounds were singly applied to the skin above the upper lips at a 40 to 70 mg dose of a 1% wt/vol (10 mg/ml) ointment. Subsequently, for the results shown in Table 3, the test dose on the philtrum was reduced to a 0.5% wt/vol (5 mg/ml) ointment. The reason for choosing a lower dose was to increase the number of trials per individual and to have a reduced chance of substances accumulating in the skin.

eyelids/ocular surface = experiment: Cooling after wiping closed eyelids with a towelette; format: in vivo, human; settings: eye wipes, 1 mg/ml in 5%-95% v/v ethanol-distilled water
Description: A second method of testing was to take a towelette saturated with a test solution of the cooling agent and to wipe the towelette over the dosed eyelids. The presence or absence of cooling (or irritanty, if applicable) sensations was then recorded at 10 minute intervals until the cessation of coolness in two successive intervals.
For testing of cooling compounds delivered to the eyelids with a towelette, the following procedures were used in the experiments of Table 3 and in Study 5 and 6. Three ml of liquid suspension or solution in distilled water was added to a 0.4 g cotton rectangle (50 mm×60 mm) (CS-being, Daisan Cotton, Japan) and individually sealed with a vaccuum apparatus (Foodsaver®, Jarden Corp.). Samples were stored in the freezer or refrigerator and thawed to room temperature before use. Wiping with the cotton pad delivers 40 to 45 μl of liquid composition to the eyelids ([…] to 22 μl per eye). So, if the concentration of the test substance was 1 mg/ml, the dose delivered to both eyes is a total of ˜40 to […], or ˜20 μg per eye. This method allows a reliable delivery of test substances because the dissolved or suspended particles in solution are evenly dispersed on the cotton pad in an excess volume of liquid. The presence or absence of cooling sensations was noted as being present or absent at 5 to 10 min intervals until no coolness was noticeable in two successive test intervals. Only the duration of cooling on the ocular surface was recorded, without an attempt to quantify the intensity of the sensation.

[2] = tested on: dorsal surface of the tongue; settings: threshold amount producing cooling on tongue of human volunteers; values from Watson US 04178459; cited from earlier work
periorbital skin = experiment: Ointment applied to periorbital skin: coolness, eye irritancy, alerting (Study 3); format: in vivo, human; settings: ointment on periorbital area; for skin coolness and refreshment: conditions similar to Study 3
Source text: The ointment was also applied to the periorbital skin (upper and lower eyelids and on skin adjacent to the lateral canthus) for tests of irritancy near the eyes, and the subject is asked if irritation is present or absent. The intensity of the eye sensation is not rated.
For tests of irritancy near the eyes in Study 3 and 4, the ointment was applied to the periorbital skin (upper and lower eyelids and on skin adjacent to the lateral canthus), and the subject asked if irritation is present or absent. The intensity of the eye sensation is not rated, but just noted as being present or absent
A 1% preparation of 2-isopropyl-5-methyl-cyclohexanecarbonyl D-alanine methyl ester in Aquaphor® ointment was applied bilaterally to the periorbital area of four individuals. […] This experiment was then repeated three days later in the evening with the same individuals whose occupations required daylong activities before a computer screen.

| SMILES | Log P [1] | Threshold tongue [2] [µg] | other results |
| --- | --- | --- | --- |
| CC1CCC(C(C)C)C(C(=O)NC2CCOC2=O)C1 (mixture of isomers) [racemic Hsl] | 2.5 |  |  |
| CCCCOC(=O)[C@@H](C)NC(=O)[C@@H]1C[C@H](C)CC[C@H]1C(C)C [D-Ala nBu Ester] | 4.4 |  | Duration of cooling, Philtrum Skin (philtrum skin): 80 min; Duration of cooling, Eyelids/Ocular Surface (eyelids/ocular surface): 40 min |
| CCCOC(=O)[C@@H](C)NC(=O)[C@@H]1C[C@H](C)CC[C@H]1C(C)C [D-Ala nPr Ester] | 3.8 |  | Duration of cooling, Philtrum Skin (philtrum skin): 108 min; Duration of cooling, Eyelids/Ocular Surface (eyelids/ocular surface): 65 min |
| CC(C)[C@@H]1CC[C@@H](C)C[C@H]1C(=O)N[C@@H]1CCOC1=O [D-Hsl] | 2.5 |  | duration of cooling (FIG. 1) (philtrum skin): 1.3 h |
| COC(=O)[C@@H](C)N(C)C(=O)[C@@H]1C[C@H](C)CC[C@H]1C(C)C [D-NMe Ala Ester] |  |  | Duration of cooling, Philtrum Skin (philtrum skin): 0 min; Duration of cooling, Eyelids/Ocular Surface (eyelids/ocular surface): 0 min |
| COC(=O)[C@H](NC(=O)[C@@H]1C[C@H](C)CC[C@H]1C(C)C)C(C)C [D-Val Me Ester] | 4.2 |  |  |
| COC(=O)CCC(NC(=O)C1CC(C)CCC1C(C)C)C(=O)OC (centres unmarked) [Glu(OMe) Me Ester] | 2.2 |  |  |
| CCOC(=O)CNC(=O)[C@@H]1C[C@H](C)CC[C@H]1C(C)C [Gly Et Ester (WS-5), reference compound] | 2.9 | 0.2 | Duration of cooling, Philtrum Skin (philtrum skin): 24 min; duration of cooling (FIG. 1) (philtrum skin): 0.5 h; duration of action / onset on philtrum skin (philtrum skin): short duration of action (less than 1 hour) on the philtrum skin or slow onset (more than 5 minutes); Duration of cooling, Eyelids/Ocular Surface (eyelids/ocular surface): 15 min |
| COC(=O)CNC(=O)C1CC(C)CCC1C(C)C (centres unmarked) [Gly Me Ester (WS-31), reference compound] | 2.4 | 0.6 | duration of action / onset on philtrum skin (philtrum skin): short duration of action (less than 1 hour) on the philtrum skin or slow onset (more than 5 minutes) |
| CCCCOC(=O)CNC(=O)[C@@H]1C[C@H](C)CC[C@H]1C(C)C [Gly nBu Ester] | 4.0 |  | Duration of cooling, Philtrum Skin (philtrum skin): 38 min; Duration of cooling, Eyelids/Ocular Surface (eyelids/ocular surface): 35 min |
| CCCOC(=O)CNC(=O)[C@@H]1C[C@H](C)CC[C@H]1C(C)C [Gly nPr Ester] | 3.4 | 0.3 | Duration of cooling, Philtrum Skin (philtrum skin): 42 min; Duration of cooling, Eyelids/Ocular Surface (eyelids/ocular surface): 54 min |
| CCOC(=O)[C@H](C)NC(=O)[C@@H]1C[C@H](C)CC[C@H]1C(C)C [L-Ala Et Ester] | 3.1 | 0.4 | Duration of cooling, Philtrum Skin (philtrum skin): 34 min; Duration of cooling, Eyelids/Ocular Surface (eyelids/ocular surface): 0 min |
| COC(=O)[C@H](C)NC(=O)[C@@H]1C[C@H](C)CC[C@H]1C(C)C [L-Ala Me Ester] | 2.8 | 0.6 |  |
| CC(C)[C@@H]1CC[C@@H](C)C[C@H]1C(=O)N[C@H]1CCOC1=O [L-Hsl] | 2.5 |  |  |
| COC(=O)[C@H](CC(C)C)NC(=O)[C@@H]1C[C@H](C)CC[C@H]1C(C)C [L-Leu Me Ester] | 4.3 |  |  |
| CC(C)[C@@H]1CC[C@@H](C)C[C@H]1C(=O)N[C@@H](CCCCNC(=O)OCc1ccccc1)C(=O)OC(C)(C)C [L-Lys(Z) t-Bu Ester] | 5.9 |  |  |
| COC(=O)[C@@H]1CCCN1C(=O)[C@@H]1C[C@H](C)CC[C@H]1C(C)C [L-Pro Me Ester] | 3.3 |  |  |
| CCOC(=O)[C@H](CO)NC(=O)[C@@H]1C[C@H](C)CC[C@H]1C(C)C [L-Ser Et Ester] | 1.8 |  |  |
| COC(=O)[C@@H](NC(=O)[C@@H]1C[C@H](C)CC[C@H]1C(C)C)C(C)C [L-Val Me Ester] | 4.2 |  |  |
| CCOC(=O)C(C)N(C)C(=O)C1CC(C)CCC1C(C)C [N—Me-D-Ala Et Ester] | 3.2 |  |  |
| CCOC(=O)CN(C)C(=O)[C@@H]1C[C@H](C)CC[C@H]1C(C)C [Sar Et Ester] | 2.9 | 0.8 |  |
| COc1ccc(NC(=O)[C@@H]2C[C@H](C)CC[C@H]2C(C)C)cc1 [WS-12, reference compound] | 5.3 | 0.2 | duration of action / onset on philtrum skin (philtrum skin): short duration of action (less than 1 hour) on the philtrum skin or slow onset (more than 5 minutes) |
| CC(C)[C@@H]1CC[C@@H](C)C[C@H]1C(=O)NC(C)(C)C [WS-14] | 4.5 | 0.4 | irritation of skin / eye surfaces (periorbital skin): produced significant skin and eye irritation; skin coolness and refreshment (periorbital skin): did not enhance skin coolness or provide satisfactory refreshment |
| CNC(=O)C(C)(C(C)C)C(C)C [WS-23, N-2,3-trimethyl-2-isopropylbutanamide] |  |  | duration of action / onset on philtrum skin (philtrum skin): short duration of action (less than 1 hour) on the philtrum skin or slow onset (more than 5 minutes); irritation of skin / eye surfaces (periorbital skin): produced significant skin and eye irritation; skin coolness and refreshment (periorbital skin): did not enhance skin coolness or provide satisfactory refreshment |
| CCOC(=O)CCNC(=O)[C@@H]1C[C@H](C)CC[C@H]1C(C)C [β-Ala Et Ester] | 3.1 | 1.5 |  |

— patent US20110082204A1, “N-alkylcarbonyl-amino acid ester and N-alkylcarbonyl-amino lactone compounds and their use” (priority 2006, published 2011)
